The subject of this test is L1210 leukemia ip in BDF1 mice, survival T/C. In words: NCI In Vivo Anticancer Drug Screen. Data for tumor model L1210 Leukemia (intraperitoneal) in B6D2F1 (BDF1) mice. The conditions noted are these: endpoint: mean survival time, higher = longer survival. The procedure, abridged: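 Tumor cells were implanted, animals were treated, and survival was followed. The result divides the treated measurement by the vehicle-control measurement.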

Setting [1] is: dose: 100.0 mg/kg/injection, schedule: Q01DX009 (ip), vehicle: saline.
The mark [2] stands for this setting: dose: 100.0 mg/kg/injection, schedule: Q04DX003 (ip), vehicle: saline.
Setting [3] is: dose: 200.0 mg/kg/injection, schedule: Q01DX009 (ip), vehicle: saline.
Setting [4] is: dose: 200.0 mg/kg/injection, schedule: Q04DX003 (ip), vehicle: saline.
Setting [5] is: dose: 400.0 mg/kg/injection, schedule: Q01DX009 (ip), vehicle: saline.
[6] abbreviates: dose: 400.0 mg/kg/injection, schedule: Q04DX003 (ip), vehicle: saline.
[7] abbreviates: dose: 100.0 mg/kg/injection, schedule: Q01DX009 (ip), vehicle: Klucel (hydroxypropylcellulose) (HPC).
Setting [8] is: dose: 200.0 mg/kg/injection, schedule: Q01DX009 (ip), vehicle: Klucel (hydroxypropylcellulose) (HPC).
Setting [9] is: dose: 400.0 mg/kg/injection, schedule: Q01DX009 (ip), vehicle: Klucel (hydroxypropylcellulose) (HPC).
The mark [10] stands for this setting: dose: 50.0 mg/kg/injection, schedule: Q01DX001 (ip), vehicle: saline.
Setting [11] is: dose: 100.0 mg/kg/injection, schedule: Q01DX001 (ip), vehicle: saline.
[12] abbreviates: dose: 200.0 mg/kg/injection, schedule: Q01DX001 (ip), vehicle: saline.
Setting [13] is: dose: 400.0 mg/kg/injection, schedule: Q01DX001 (ip), vehicle: saline.

Toxic doses and inconclusive results are not listed.

Data on 16 compounds can be found in PubChem BioAssay AID248 (DTP/NCI, 2004).

As for `NC(Cc1ccccc1)c1nn[nH]n1` (configuration not stated), the T/C is, setting by setting: (dose: 55.0 mg/kg/injection, schedule: Q01DX Z (ip), vehicle: methylcellulose (MC)) 93 % of control; (dose: 83.0 mg/kg/injection, schedule: Q01DX Z (ip), vehicle: methylcellulose (MC)) 110 % of control.
Consider `Cn1cnc2c1c(=N)ncn2O`, for which the T/C is 103 % of control (dose: 100.0 mg/kg/injection, schedule: Q01DX001 (ip), vehicle: other); 107 % of control (dose: 100.0 mg/kg/injection, schedule: Q04DX003 (ip), vehicle: other); 103 % of control (dose: 200.0 mg/kg/injection, schedule: Q01DX001 (ip), vehicle: other); 113 % of control (dose: 200.0 mg/kg/injection, schedule: Q04DX003 (ip), vehicle: other); 103 % of control (dose: 400.0 mg/kg/injection, schedule: Q01DX001 (ip), vehicle: other); 113 % of control (dose: 400.0 mg/kg/injection, schedule: Q04DX003 (ip), vehicle: other).
For the compound `CS(C)(C)N1C(=O)c2ccccc2C1=O`, the T/C is 98 % of control (dose: 87.5 mg/kg/injection, schedule: Q01DX009 (ip), vehicle: Klucel (hydroxypropylcellulose) (HPC)) and 96 % of control (dose: 175.0 mg/kg/injection, schedule: Q01DX009 (ip), vehicle: Klucel (hydroxypropylcellulose) (HPC)).
For the compound `CC1(c2ccccc2)NC(=O)N(CCC#N)C1=O` (configuration not stated), the T/C reads like this: (dose: 100.0 mg/kg/injection, schedule: Q04DX003 (ip), vehicle: acetone) 100 % of control; (dose: 200.0 mg/kg/injection, schedule: Q04DX003 (ip), vehicle: acetone) 90 % of control; (dose: 400.0 mg/kg/injection, schedule: Q04DX003 (ip), vehicle: acetone) 104 % of control.
Turning to `CN(Cc1cnc2nc(N)nc(N)c2n1)c1c(F)cc(C(=O)NC(CCC(=O)O)C(=O)O)cc1F` (configuration not stated), the T/C by setting is: (dose: 1.5 mg/kg/injection, schedule: Q01DX009 (ip), vehicle: sodium bicarbonate) 114 % of control; (dose: 12.0 mg/kg/injection, schedule: Q01DX009 (ip), vehicle: sodium bicarbonate) 154 % of control.
Consider `COC(=O)C(=O)NCc1cnccn1`, for which the T/C reads like this: under setting [1], 105 % of control; under setting [2], 93 % of control; under setting [3], 110 % of control; under setting [4], 107 % of control; under setting [5], 111 % of control; under setting [6], 100 % of control.
`O=[N+]([O-])c1ccc(F)c(Cl)c1F`: the T/C is 103 % of control (dose: 10.0 mg/kg/injection, schedule: Q04DX003 (ip), vehicle: Klucel (hydroxypropylcellulose) (HPC)); 106 % of control (dose: 20.0 mg/kg/injection, schedule: Q04DX003 (ip), vehicle: Klucel (hydroxypropylcellulose) (HPC)); 99 % of control (dose: 40.0 mg/kg/injection, schedule: Q04DX003 (ip), vehicle: Klucel (hydroxypropylcellulose) (HPC)).
Take `c1ccc2c3c(ccc2c1)Sc1ccc2ccccc2c1N3`: the T/C by setting is: under setting [1], 102 % of control; under setting [2], 97 % of control; under setting [3], 98 % of control; under setting [4], 111 % of control; under setting [5], 93 % of control; under setting [6], 95 % of control.
Consider `O=C(NCCBr)Nc1ccc2c(c1)OCO2`, for which the T/C is 94 % of control under setting [7]; 111 % of control (dose: 100.0 mg/kg/injection, schedule: Q04DX003 (ip), vehicle: Klucel (hydroxypropylcellulose) (HPC)); 102 % of control under setting [8]; 101 % of control (dose: 200.0 mg/kg/injection, schedule: Q04DX003 (ip), vehicle: Klucel (hydroxypropylcellulose) (HPC)); 96 % of control under setting [9]; 108 % of control (dose: 400.0 mg/kg/injection, schedule: Q04DX003 (ip), vehicle: Klucel (hydroxypropylcellulose) (HPC)).
Take `CCOC(CCc1c(-c2ccccc2)nc(N)[nH]c1=O)OCC`: the T/C was 110 % of control (dose: 100.0 mg/kg/injection, schedule: Q01DX009 (ip), vehicle: other); 102 % of control (dose: 200.0 mg/kg/injection, schedule: Q01DX009 (ip), vehicle: other); 93 % of control (dose: 400.0 mg/kg/injection, schedule: Q01DX009 (ip), vehicle: other).
In the case of `CCOC(=O)C1CN(C)C(=O)C1=O` (configuration not stated), the T/C was 100 % of control under setting [10], 93 % of control under setting [11], 87 % of control under setting [12] and 114 % of control under setting [13].
Take `Clc1ccc2c(c1)Cc1cc(N=Cc3ccccc3Cl)ccc1-2`: the T/C runs as follows: (dose: 12.5 mg/kg/injection, schedule: Q01DX001 (ip), vehicle: saline) 97 % of control; (dose: 12.5 mg/kg/injection, schedule: Q04DX003 (ip), vehicle: saline) 92 % of control; (dose: 25.0 mg/kg/injection, schedule: Q01DX001 (ip), vehicle: saline) 87 % of control; (dose: 25.0 mg/kg/injection, schedule: Q04DX003 (ip), vehicle: saline) 93 % of control; under setting [10], 106 % of control; (dose: 50.0 mg/kg/injection, schedule: Q04DX003 (ip), vehicle: saline) 87 % of control. Moreover, the T/C was 90 % of control (dose: 65.0 mg/kg/injection, schedule: Q01DX Z (ip), vehicle: carboxymethylcellulose (CMC)); 101 % of control (dose: 75.0 mg/kg/injection, schedule: Q04DX003 (ip), vehicle: saline); 89 % of control (dose: 115.0 mg/kg/injection, schedule: Q04DX003 (ip), vehicle: saline); 96 % of control (dose: 125.0 mg/kg/injection, schedule: Q01DX Z (ip), vehicle: carboxymethylcellulose (CMC)); 103 % of control (dose: 170.0 mg/kg/injection, schedule: Q04DX003 (ip), vehicle: saline); 89 % of control under setting [12]. Further, the T/C is, setting by setting: (dose: 250.0 mg/kg/injection, schedule: Q01DX Z (ip), vehicle: carboxymethylcellulose (CMC)) 102 % of control; (dose: 500.0 mg/kg/injection, schedule: Q01DX Z (ip), vehicle: carboxymethylcellulose (CMC)) 102 % of control.
Take `CCc1cccc(CC)c1N1C(=O)CC(Sc2ccccc2N)C1=O` (configuration not stated): the T/C (dose: 100.0 mg/kg/injection, schedule: Q01DX009 (ip), vehicle: gum acacia) was 93 % of control; the T/C (dose: 100.0 mg/kg/injection, schedule: Q04DX003 (ip), vehicle: gum acacia) is 96 % of control; the T/C (dose: 200.0 mg/kg/injection, schedule: Q01DX009 (ip), vehicle: gum acacia) was 91 % of control; the T/C (dose: 200.0 mg/kg/injection, schedule: Q04DX003 (ip), vehicle: gum acacia) was 91 % of control; the T/C (dose: 400.0 mg/kg/injection, schedule: Q01DX009 (ip), vehicle: gum acacia) is 98 % of control; the T/C (dose: 400.0 mg/kg/injection, schedule: Q04DX003 (ip), vehicle: gum acacia) was 100 % of control.
As to `CC(Cl)CN(CC(C)Cl)C(=O)Oc1ccc([N+](=O)[O-])cc1` (configuration not stated), the T/C is 98 % of control under setting [7], 94 % of control under setting [8] and 98 % of control under setting [9].
Take `O=S(=O)(O)C(O)c1ccccc1O` (configuration not stated): the T/C is 100 % of control under setting [11], 103 % of control under setting [12] and 102 % of control under setting [13].
Turning to `O=C1OCCOC1=O`, the T/C (dose: 75.0 mg/kg/injection, schedule: Q01DX001 (ip), vehicle: other) is 90 % of control; the T/C (dose: 150.0 mg/kg/injection, schedule: Q01DX001 (ip), vehicle: other) is 95 % of control; the T/C (dose: 300.0 mg/kg/injection, schedule: Q01DX001 (ip), vehicle: other) is 95 % of control.
